The results in this text go back to patent US20110028472A1, “THIENOPYRIMIDINES” (MERCK PATENT CESELLSCHAFT MIT BESCHRANKTER HAFTUNG, priority 2008, published 2011).

This test addresses T1, GST-ALK5 (Homo sapiens, UniProt P36897).
T1 sequence (P36897 34-503): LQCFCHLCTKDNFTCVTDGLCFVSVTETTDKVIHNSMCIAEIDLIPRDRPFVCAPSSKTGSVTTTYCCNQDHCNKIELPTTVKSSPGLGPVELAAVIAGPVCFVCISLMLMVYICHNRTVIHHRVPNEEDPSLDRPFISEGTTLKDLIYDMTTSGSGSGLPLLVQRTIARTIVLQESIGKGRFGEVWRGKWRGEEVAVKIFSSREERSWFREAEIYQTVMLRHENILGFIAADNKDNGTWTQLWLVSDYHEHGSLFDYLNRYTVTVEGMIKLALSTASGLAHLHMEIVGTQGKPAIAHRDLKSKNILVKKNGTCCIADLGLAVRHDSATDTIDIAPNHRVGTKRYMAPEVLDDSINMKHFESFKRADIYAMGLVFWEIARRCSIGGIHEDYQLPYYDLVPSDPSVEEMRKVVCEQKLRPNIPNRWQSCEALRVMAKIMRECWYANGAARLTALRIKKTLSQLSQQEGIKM
Nature of the test: In-vitro (enzyme) kinase assay, 384-well flashplate, inhibition of TGF-beta receptor I kinase. In kind it is biochemical. As to conditions: 31.2 nM GST-ALK5, 439 nM GST-SMAD2, 3 mM ATP (33P-ATP), 30° C., 45 min. As to the method: In-Vitro (Enzyme) Assay for the Determination of the Efficacy of Inhibitors of the Inhibition of TGF-Beta-Promoted Effects Vermittelten Wirkungen
The kinase assay is carried out as 384-well flashplate assay. 31.2 nM of GST-ALK5, 439 nM of GST-SMAD2 and 3 mM of ATP (with 0.3 μCi of ^33P-ATP/well) are incubated in a total volume of 35 μl (20 mM of HEPES, 10 mM of MgCl, 5 mM of MnCl, 1 mM of DTT, 0.1% of BSA, pH 7.4) without or with test substance (5-10 concentrations) at 30° C. for 45 min. The reaction is stopped using 25 μl of 200 mM EDTA solution, filtered with suction at room temperature after 30 min, and the wells are washed with 3 times 100 μl of 0.9% NaCl solution. Radioactivity is measured in the TopCount. The IC50 values are calculated using RS1.
With `Cc1ccc(-c2nc(C3CC3)nc3sc(C(N)=O)c(N)c23)o1` [Compound A1, 5-amino-2-cyclopropyl-4-(5-methylfuran-2-yl)-thieno[2,3-d]pyrimidine-6-carboxamide], the IC50 (as a rule, the point on the concentration scale where inhibition reaches its midpoint) is 48 nM.

`CSc1nc(-c2ccco2)c2c(N)c(C(N)=O)sc2n1` [Compound A8, 5-amino-4-furan-2-yl-2-methylsulfanylthieno[2,3-d]pyrimidine-6-carboxamide]: inhibition was half-maximal at 97 nM (IC50).

`CSc1nc(-c2ccc(C)o2)c2c(N)c(C(N)=O)sc2n1` [Compound A10, 5-Amino-4-(5-methylfuran-2-yl)-2-methyl-sulfanylthieno[2,3-d]pyrimidine-6-carboxamide] gave an IC50 of 46 nM.

`CC(C)(C)c1nc(-c2ccco2)c2c(N)c(C(N)=O)sc2n1` [Compound A25, 5-amino-2-tert-butyl-4-furan-2-ylthieno[2,3-d]pyrimidine-6-carboxamide] registered an IC50 of 87 nM.

Turning to `Cc1ccc(-c2nc(C(C)(C)C)nc3sc(C(N)=O)c(N)c23)o1` [Compound A26, 5-amino-2-tert-butyl-4-(5-methylfuran-2-yl)thieno[2,3-d]pyrimidine-6-carboxamide], it took 77 nM to reach half-maximal inhibition (IC50).

The molecule `CNc1nc(-c2ccc(C)o2)c2c(N)c(C(N)=O)sc2n1` [Compound A34, 5-amino-2-methylamino-4-(5-methylfuran-2-yl)thieno[2,3-d]pyrimidine-6-carboxamide] had an IC50 of 36 nM.

Molecule `C=CCNc1nc(-c2ccc(C)o2)c2c(N)c(C(N)=O)sc2n1` [Compound A42, 2-allylamino-5-amino-4-(5-methylfuran-2-yl)-thieno[2,3-d]pyrimidine-6-carboxamide] displayed an IC50 of 67 nM.

Take `C=CCNc1nc(-c2cccc(C)n2)c2c(N)c(C(N)=O)sc2n1` [Compound A50, 2-allylamino-5-amino-4-(6-methylpyridin-2-yl)thieno[2,3-d]pyrimidine-6-carboxamide]: the 50% inhibitory concentration (IC50) stood at 22 nM.

As for `C#CCNc1nc(-c2cccc(C)n2)c2c(N)c(C(N)=O)sc2n1` [Compound A52, 5-amino-4-(6-methylpyridin-2-yl)-2-prop-2-ynylaminothieno[2,3-d]pyrimidine-6-carboxamide], the IC50 is 54 nM.

In turn, `Cc1cccc(-c2nc(NCCC#N)nc3sc(C(N)=O)c(N)c23)n1` [Compound A56, 5-amino-2-(2-cyanoethylamino)-4-(6-methylpyridin-2-yl)thieno[2,3-d]-pyrimidine-6-carboxamide] showed an IC50 of 79 nM.
